Measurements published in paper PMC9823088, “The oral selective estrogen receptor degrader GDC-0810 (ARN-810) in postmenopausal women with hormone receptor-positive HER2-negative (HR + /HER2 −) advanced/metastatic breast cancer” (Breast Cancer Research and Treatment, 2022).
Each block holds one compound with its values, some of them ahead of it.

How the values were obtained:
[1] = Plasma pharmacokinetics of GDC-0810 and glucuronide metabolites; format: in vivo, human; details: steady state, 600-mg QD, non-fasted condition
Protocol: Blood samples were collected for pharmacokinetic assessments. Tumor assessments were performed at screening and every 8 weeks from cycle 1, day 1 (C1D1). Radiographic assessment of objective tumor response or disease progression was based on Response Evaluation Criteria in Solid Tumors (RECIST v1.1). Transvaginal ultrasound scans were performed to monitor endometrial thickness at screening, at every 6 months from C1D1, and at the end of treatment. Imaging with [^18F]-fluoroestradiol positron emission tomography (FES-PET) was performed to quantify ER expression in tumors and to assess for pharmacodynamic response. Further assessment details are provided in Supplementary Methods.
CYP2B6 and CYP2C enzymes. […]
Blood samples were collected for pharmacokinetic assessment on lead-in day −7 and cycle 2 day 1 (C2D1) at predose (0 hour) and postdose (0.5, 1, 1.5, 2, 3, 4, 6, 8, and 24 hours), (plus at 48 hours postdose for day−7). Full plasma pharmacokinetic profiles were obtained for GDC-0810 and its glucuronide metabolites (acyl-glucuronide and N-glucuronide) using a validated liquid chromatography/ tandem mass spectrometry method, and analyzed using non-compartmental methods for all patients in the dose escalation cohorts.
Tumor assessments were performed at screening and every 8 weeks from cycle-1, day-1 […]

[2] = test system: ER; parameters: method as in PMID 25380844; details: patients receiving fulvestrant; cited from earlier work
[3] = parameters: method as in PMID 32919527; details: cited from earlier work
[4] = test system: MBC; parameters: method as in PMID 34906954; details: cited from earlier work

average plasma exposure of metabolite relative to parent GDC-0810 [1]: ~10%
Structure (SMILES): CC/C(=C(/c1ccc(/C=C/C(=O)O[C@@H]2O[C@H](C(=O)O)[C@@H](O)[C@H](O)[C@H]2O)cc1)c1ccc2[nH]ncc2c1)c1ccc(F)cc1Cl [GDC-0810-acyl-glucuronide]

Structure (SMILES): C[C@]12CC[C@@H]3c4ccc(O)cc4C[C@@H](CCCCCCCCC[S+]([O-])CCCC(F)(F)C(F)(F)F)[C@H]3[C@@H]1CC[C@@H]2O (some centres unmarked) [fulvestrant]
patients with residual ER activity by FES-PET [2]: 38%
solubility [3]: poor solubility

Structure (SMILES): CCNCCc1ccc(CN(CC)c2cc(OC)ccc2[C@@H]2CCc3cc(O)ccc3C2)cc1 [elacestrant]
PFS ([4]; patients with MBC who received endocrine + CDK4/6 previously): 2.8 months
median PFS ([4]; patients with tumors harboring ESR1 mutations): 3.8 months
